Reference: publication PMC10804683, “Identification of the pyridoxal 5′‐phosphate allosteric site in human pyridox(am)ine 5′‐phosphate oxidase” (Protein Science : A Publication of the Protein Society, 2024)
Numbering of substitutions follows the chain as printed.

What was measured:
[1] = biological target: T1, human PNPO F48A/E50L/H248N/R258L variant (Homo sapiens, UniProt Q9NVS9, E50L/F48A/H248N/R258L); assay: PLP inhibition kinetics of PNP oxidation, quadruple variant; format: biochemical; conditions: Na-HEPES pH 7.6, 2 μM enzyme, PLP 0–16 μM
T1 construct: a main form corresponding to the entire protein; made in house; host or cells: E. coli BL21(DE3)
T1 sequence (Q9NVS9 1-261 F48A/E50L/H248N/R258L): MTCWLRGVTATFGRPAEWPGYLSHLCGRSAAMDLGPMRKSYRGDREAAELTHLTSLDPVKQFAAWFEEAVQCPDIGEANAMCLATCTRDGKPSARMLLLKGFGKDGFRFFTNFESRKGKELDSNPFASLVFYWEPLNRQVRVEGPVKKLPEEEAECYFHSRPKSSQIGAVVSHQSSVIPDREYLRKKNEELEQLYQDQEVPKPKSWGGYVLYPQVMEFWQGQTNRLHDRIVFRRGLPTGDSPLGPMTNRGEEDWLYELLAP
Protocol: This is a general inhibition mechanism that takes into account the possibility of PLP binding to both the active and allosteric sites. PLP binding at the active site gives a complete, competitive inhibition, whereas PLP binding at the allosteric site yields a substrate‐enzyme‐PLP ternary complex that is still catalytically active, although k CAT is reduced by a coefficient whose value is around 0.15. A thorough inhibition kinetic characterization was carried out with the wild type, F48A, F48A/E50L/R258L, and F48A/E50L/H248N/R258L PNPO forms, so as to evaluate the effect of the variations on the allosteric properties of the enzyme. The initial velocity of PNP conversion into PLP was measured in Na‐HEPES buffer (in which PLP is allowed to accumulate) by varying substrate concentration at different, fixed exogenous PLP concentrations, using 2 μM enzyme. A series of saturation curves were obtained that were used to fit the Michaelis–Menten equation (Figure 5), acquiring apparent V MAX and K M values as a function of PLP concentration. […]
FIGURE 5 Characterization of PLP inhibition. Upper panels: The initial velocity of the reaction was measured with 2 μM wild type (a), and the F48A (b), F48A/E50L/R258L (c), and F48A/E50L/H248N/R258L (d) PNPO variants, varying PNP concentration while keeping exogenous PLP fixed at different concentrations (0, 0.25, 0.5, 1, 2, 4, 8, and 16 μM). […]

human PNPO R161C variant = biological target: human PNPO R161C variant; design: method as in Barile et al., [2021]; conditions: previous experiments, ref Barile et al., [2021]; cited from earlier work
human PNPO wild type = biological target: T2, human PNPO wild type (Homo sapiens, UniProt Q9NVS9); design: a main form corresponding to the entire protein; made in house; host or cells: E. coli BL21(DE3); method as in Barile et al., [2020]; conditions: substrate-enzyme-PLP ternary complex, ref Barile et al., [2020]; cited from earlier work
T2 sequence (Q9NVS9 1-261): T1 sequence (Q9NVS9 1-261 F48A/E50L/H248N/R258L) with A48F, L50E, N248H, L258R

- type of inhibition of PNP oxidation by PLP [1]: pure competitive inhibition
Structure (SMILES): Cc1ncc(COP(=O)(O)O)c(C=O)c1O [PLP, pyridoxal 5′‐phosphate]
- PLP binding KD^DSF (human PNPO R161C variant): No binding
- coefficient by which kCAT is reduced with PLP bound at the allosteric site (human PNPO wild type): around 0.15
